Drawing on patent publication US7943616B2, “Azaindoles for inhibiting aurora2 and other kinases” (Aventis Pharmaceuticals Inc., priority 2001, dated 2011), this text covers melting point for eight compounds.

Structures are written as SMILES.

Consider `COc1ccc2[nH]cc(-c3cc4c(C(N)=O)ccnc4[nH]3)c2c1` [Example 42, 2-(5-Methoxy-1H-indol-3-yl)-1H-pyrrolo[2,3-b]pyridine-4 Carboxamide], for which the melting point is above 320 °C.

As for `Cn1cc(-c2cc3nccnc3[nH]2)c2cc(O)ccc21` [Example 7, 1-methyl-3-(5H-pyrrolo[2,3-b]pyrazin-6-yl)-1H-indol-5-ol], the melting point was in the range of 289 to 290 °C. Consider `COc1ccc2[nH]cc(-c3cc4nccnc4[nH]3)c2c1` [Example 11, 6-(5-methoxy-1H-indol-3-yl)-5H-pyrrolo[2,3-b]pyrazine], for which the melting point was 268 to 271 °C. `CC(C)(C)c1ccc(-c2[nH]c3nccnc3c2CCCO)cc1` [Example 26, 3-[6-(4-tert-Butyl-phenyl)-5H-pyrrolo[2,3-b]pyrazin-7-yl]-propan-1-ol]: the melting point lay in the range of 187 to 189 °C. Next, `CCOC(=O)COc1cc(-c2cc3nccnc3[nH]2)ccc1OC` [Example 27, [2-Methoxy-5-(5H-pyrrolo[2,3-b]pyrazin-6-yl)-phenoxy]acetic Acid Ethyl Ester]: 183 to 184 °C; `c1cncc(OCCCn2cc(-c3cc4nccnc4[nH]3)c3ccccc32)c1` [Example 6, 6-{1-[3-(Pyridin-3-yloxy)-propyl]-1H-indol-3-yl}-5H-pyrrolo[2,3-b]pyrazine]: 208 to 209 °C; `Cn1cc(-c2cc3cccnc3[nH]2)c2cc(N)ccc21` [Example 18, 1-Methyl-3-(1H-pyrrolo[2,3-b]pyridin-2-yl)-1H-indol-5-ylamine]: 247 to 248 °C. Next, `CC(C)(C)c1ccc(-c2[nH]c3nccnc3c2CCC#N)cc1` [Example 23]: 215 to 216 °C.
